In article PMC6332194, “Synthesis of C3/C1-Substituted Tetrahydroisoquinolines” (Molecules, 2015) one finds inhibition data, which are given here for one compound.

For orientation: inhibition means the percentage by which the read-out fell short of the control.

Holding throughout (assay): fluorogenic peptide-AMC hydrolysis assay
Type in all cases: biochemical

In assay [1] the target is T1, recombinant Leishmania mexicana cysteine protease CPB2.8 (Leishmania mexicana, UniProt P36400).
T1 construct: gene LMCPB; recombinant; often used without C-terminal extension
T1 sequence (P36400 126-340): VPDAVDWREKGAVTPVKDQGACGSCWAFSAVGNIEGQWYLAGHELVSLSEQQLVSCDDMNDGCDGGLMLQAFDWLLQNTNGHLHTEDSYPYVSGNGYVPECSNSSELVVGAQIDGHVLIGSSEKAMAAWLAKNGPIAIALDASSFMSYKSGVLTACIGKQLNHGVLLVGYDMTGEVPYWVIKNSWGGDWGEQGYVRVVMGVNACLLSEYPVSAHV

Assay [2] addresses T2, human 20S proteasome, β2-subunits (trypsin-like activity) (Homo sapiens, UniProt Q99436).
T2 construct: gene PSMB7; commercial 20S core particle (Biomol GmbH); with Proteasome subunit beta type-3; Proteasome subunit beta type-5; Proteasome subunit beta type-6; Proteasome subunit beta type-1; Proteasome subunit beta type-2; Proteasome subunit beta type-4; Proteasome subunit alpha type-6; Proteasome subunit alpha type-2; Proteasome subunit alpha type-4; Proteasome subunit alpha type-7; Proteasome subunit alpha type-5; Proteasome subunit alpha type-1; Proteasome subunit alpha type-3
T2 sequence (Q99436 44-277): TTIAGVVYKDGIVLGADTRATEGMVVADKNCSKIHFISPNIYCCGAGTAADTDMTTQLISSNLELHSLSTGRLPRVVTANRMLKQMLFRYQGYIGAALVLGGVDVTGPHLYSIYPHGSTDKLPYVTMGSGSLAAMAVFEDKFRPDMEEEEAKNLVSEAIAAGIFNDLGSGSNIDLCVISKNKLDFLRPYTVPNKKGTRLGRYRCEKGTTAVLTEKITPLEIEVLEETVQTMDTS

Assay [3] has as its target T3, human 20S proteasome, β5-subunits (chymotrypsin-like activity) (Homo sapiens, UniProt P28074).
T3 construct: gene PSMB5; commercial 20S core particle (Biomol GmbH); with Proteasome subunit beta type-1; Proteasome subunit beta type-6; Proteasome subunit beta type-7; Proteasome subunit beta type-3; Proteasome subunit beta type-2; Proteasome subunit beta type-4; Proteasome subunit alpha type-6; Proteasome subunit alpha type-2; Proteasome subunit alpha type-4; Proteasome subunit alpha type-7; Proteasome subunit alpha type-5; Proteasome subunit alpha type-1; Proteasome subunit alpha type-3
T3 sequence (P28074 60-263): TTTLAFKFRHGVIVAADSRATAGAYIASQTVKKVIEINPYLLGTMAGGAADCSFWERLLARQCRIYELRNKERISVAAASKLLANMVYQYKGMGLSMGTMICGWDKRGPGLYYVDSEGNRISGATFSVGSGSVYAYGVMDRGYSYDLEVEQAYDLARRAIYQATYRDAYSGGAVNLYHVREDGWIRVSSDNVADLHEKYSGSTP

As to `COc1cc2c(cc1O)[C@@H](C)N(C)CC2` [compound 2, N-methylisosalsoline], the inhibition at 20 µM in assay [1] was around 14%; in assay [2], around 20%; in assay [3], around 40%.
